# Source: PubChem BioAssay AID292 (DTP/NCI, 2004)
# Where “and” joins values, the source holds several entries; their conditions need not be identical. Equal values may be shown once. Toxic doses and inconclusive results are not listed.
# Tested on: B6C3F1 mice, ip Sarcoma M5076, median survival T/C
# Assay: NCI In Vivo Anticancer Drug Screen. Data for tumor model Sarcoma M5076 (intraperitoneal) in B6C3F1 mice
# Settings: endpoint: median survival time, schedule: Q04DX004 (ip), higher = longer survival
# In short: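 The readout is a ratio of survival in drug-treated animals to survival in animals given vehicle alone, taken in mice bearing a transplanted tumour line.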
# [1] = dose: 75.0 mg/kg/injection, vehicle: saline with Tween-80
# [2] = dose: 150.0 mg/kg/injection, vehicle: saline with Tween-80
# [3] = dose: 300.0 mg/kg/injection, vehicle: saline with Tween-80
# [4] = dose: 600.0 mg/kg/injection, vehicle: saline with Tween-80
# [5] = dose: 12.5 mg/kg/injection, vehicle: Klucel (hydroxypropylcellulose) (HPC)
# [6] = dose: 25.0 mg/kg/injection, vehicle: Klucel (hydroxypropylcellulose) (HPC)
# [7] = dose: 12.5 mg/kg/injection, vehicle: saline with Tween-80
# [8] = dose: 25.0 mg/kg/injection, vehicle: saline with Tween-80
# [9] = dose: 50.0 mg/kg/injection, vehicle: saline with Tween-80
# [10] = dose: 100.0 mg/kg/injection, vehicle: saline with Tween-80
# [11] = dose: 25.0 mg/kg/injection, vehicle: water
# [12] = dose: 50.0 mg/kg/injection, vehicle: water
# [13] = dose: 200.0 mg/kg/injection, vehicle: saline with Tween-80
# [14] = dose: 400.0 mg/kg/injection, vehicle: saline with Tween-80
# [15] = dose: 30.0 mg/kg/injection, vehicle: saline
# [16] = dose: 37.5 mg/kg/injection, vehicle: saline with Tween-80
# [17] = dose: 50.0 mg/kg/injection, vehicle: Klucel (hydroxypropylcellulose) (HPC)
# [18] = dose: 100.0 mg/kg/injection, vehicle: Klucel (hydroxypropylcellulose) (HPC)
# [19] = dose: 200.0 mg/kg/injection, vehicle: Klucel (hydroxypropylcellulose) (HPC)
compound,measurement,setting,value
Nc1nc2c(ncn2C2OC(CO)C(O)C2O)c(=O)[nH]1 (stereo unspecified),T/C,[1],107 % of control
same,T/C,[2],114 % of control
same,T/C,[3],114 % of control
same,T/C,[4],114 % of control
same,T/C,"dose: 1200.0 mg/kg/injection, vehicle: saline with Tween-80",109 % of control
CCN(CC)C(=Nc1ccc(Cl)c(Cl)c1)SC(NC=O)=C(Cl)Cl,T/C,"dose: 50.0 mg/kg/injection, vehicle: Klucel + Tween-80",104 % of control
same,T/C,"dose: 100.0 mg/kg/injection, vehicle: Klucel + Tween-80",97 % of control
same,T/C,"dose: 200.0 mg/kg/injection, vehicle: Klucel + Tween-80",91 % of control
O=C1N2CCNc3ccccc3C(c3ccccc3)N1CC2 (stereo unspecified),T/C,"dose: 6.25 mg/kg/injection, vehicle: Klucel (hydroxypropylcellulose) (HPC)",117 % of control
same,T/C,[5],103 % of control
same,T/C,[6],106 % of control
NCCSC(C[N+](=O)[O-])c1ccccc1Cl (stereo unspecified),T/C,[7],90 % of control and 100 % of control
same,T/C,[8],92 % of control and 105 % of control
same,T/C,[9],95 % of control and 98 % of control
same,T/C,[10],109 % of control
Cc1ccc(NN=O)nc1,T/C,"dose: 3.13 mg/kg/injection, vehicle: water",113 % of control
same,T/C,"dose: 6.25 mg/kg/injection, vehicle: water",113 % of control
same,T/C,[11],160 % of control
same,T/C,[12],160 % of control
COC1CCCCC1C(N)C(=O)O (stereo unspecified) (tested in a mixture with another compound),T/C,[8],100 % of control
same,T/C,[9],91 % of control
same,T/C,[10],95 % of control
same,T/C,[13],95 % of control
same,T/C,[14],93 % of control
O=C1C(=O)N(c2ccccc2Cl)C(=O)N1Cc1ccccc1,T/C,"dose: 43.75 mg/kg/injection, vehicle: Klucel (hydroxypropylcellulose) (HPC)",102 % of control
same,T/C,"dose: 87.5 mg/kg/injection, vehicle: Klucel (hydroxypropylcellulose) (HPC)",98 % of control
same,T/C,"dose: 175.0 mg/kg/injection, vehicle: Klucel (hydroxypropylcellulose) (HPC)",109 % of control
same,T/C,"dose: 350.0 mg/kg/injection, vehicle: Klucel (hydroxypropylcellulose) (HPC)",94 % of control
same,T/C,"dose: 700.0 mg/kg/injection, vehicle: Klucel (hydroxypropylcellulose) (HPC)",93 % of control
C#CCN(Cc1ccc2nc(N)[nH]c(=O)c2c1)c1ccc(C(=O)NC(CCC(=O)O)C(=O)O)cc1 (stereo unspecified),T/C,[11],98 % of control
same,T/C,[12],98 % of control and 118 % of control
same,T/C,"dose: 100.0 mg/kg/injection, vehicle: water",120 % of control
same,T/C,"dose: 200.0 mg/kg/injection, vehicle: water",162 % of control
same,T/C,"dose: 400.0 mg/kg/injection, vehicle: water",152 % of control and 175 % of control
Cc1c2ccccc2c(C)c2c1cc(C(=O)O)c1ccccc12,T/C,"dose: 12.5 mg/kg/injection, vehicle: sodium bicarbonate",113 % of control
same,T/C,"dose: 25.0 mg/kg/injection, vehicle: sodium bicarbonate",113 % of control
same,T/C,"dose: 50.0 mg/kg/injection, vehicle: sodium bicarbonate",113 % of control
same,T/C,"dose: 200.0 mg/kg/injection, vehicle: sodium bicarbonate",124 % of control
S=C(NCNC(=S)c1ccncc1)c1ccncc1,T/C,[8],96 % of control
same,T/C,[9],99 % of control
same,T/C,[10],92 % of control
same,T/C,[13],102 % of control
same,T/C,[14],107 % of control
CN=NN(C)C(=O)NC,T/C,"dose: 25.0 mg/kg/injection, vehicle: saline",158 % of control
same,T/C,[15],160 % of control
same,T/C,"dose: 50.0 mg/kg/injection, vehicle: saline",151 % of control and 152 % of control and 177 % of control
same,T/C,"dose: 83.0 mg/kg/injection, vehicle: saline",160 % of control and 162 % of control
COC(=O)c1ccc(OCc2nc3ccccc3[nH]2)cc1,T/C,[8],95 % of control
same,T/C,[9],100 % of control
same,T/C,[10],95 % of control
same,T/C,[13],89 % of control
same,T/C,[14],90 % of control
Nc1ccc2c(c1)C1(CCC2)NC(=O)NC1=O (stereo unspecified),T/C,[9],97 % of control
same,T/C,[10],96 % of control
same,T/C,[13],98 % of control
same,T/C,[14],98 % of control
O=CC(S)CO (stereo unspecified),T/C,"dose: 25.0 mg/kg/injection, vehicle: suspension in saline",108 % of control
same,T/C,"dose: 50.0 mg/kg/injection, vehicle: suspension in saline",104 % of control
same,T/C,"dose: 200.0 mg/kg/injection, vehicle: suspension in saline",118 % of control
same,T/C,"dose: 400.0 mg/kg/injection, vehicle: suspension in saline",113 % of control
CCOC(=O)/N=[N+](\[O-])c1ccccc1,T/C,"dose: 3.13 mg/kg/injection, vehicle: saline with Tween-80",105 % of control
same,T/C,"dose: 6.25 mg/kg/injection, vehicle: saline with Tween-80",97 % of control
same,T/C,[7],104 % of control
same,T/C,[8],97 % of control
same,T/C,[9],101 % of control
Clc1cccc2[nH]c(-c3ccncc3)nc12,T/C,[16],104 % of control
same,T/C,[1],111 % of control
same,T/C,[2],98 % of control
same,T/C,[3],105 % of control
same,T/C,[4],100 % of control
NC1=NCc2c(sc3c2CCCC3)N1,T/C,[5],94 % of control
same,T/C,[6],94 % of control
same,T/C,[17],96 % of control
same,T/C,[18],93 % of control
c1ccc([Te][Te]c2ccccc2)cc1,T/C,"dose: 18.75 mg/kg/injection, vehicle: saline with Tween-80",106 % of control
same,T/C,[16],100 % of control
same,T/C,[1],98 % of control
COc1ccccc1C1C(C#N)C(=O)NC(=O)C1C#N (stereo unspecified),T/C,[17],100 % of control
same,T/C,[18],100 % of control
same,T/C,[19],95 % of control
same,T/C,"dose: 400.0 mg/kg/injection, vehicle: Klucel (hydroxypropylcellulose) (HPC)",102 % of control
COc1ccc2nc(C)cc(N/N=C/c3cccnc3)c2c1,T/C,[5],104 % of control
same,T/C,[6],114 % of control
same,T/C,[17],116 % of control
same,T/C,[18],117 % of control
O=S(=O)(c1cccc(N=C=S)c1)c1cccc(N=C=S)c1,T/C,[5],99 % of control
same,T/C,[6],94 % of control
same,T/C,[17],103 % of control
same,T/C,[18],99 % of control
CCOC(=O)N(C)N=NC,T/C,"dose: 1.3 mg/kg/injection, vehicle: saline",110 % of control
same,T/C,"dose: 2.16 mg/kg/injection, vehicle: saline",119 % of control
same,T/C,"dose: 3.6 mg/kg/injection, vehicle: saline",122 % of control
same,T/C,"dose: 10.0 mg/kg/injection, vehicle: saline",155 % of control
same,T/C,[15],158 % of control
same,T/C,"dose: 60.0 mg/kg/injection, vehicle: saline",168 % of control
NCCn1c(-c2ccccc2)nc2ccccc2c1=O,T/C,[6],106 % of control
same,T/C,[17],102 % of control
same,T/C,[18],109 % of control
same,T/C,[19],94 % of control
O=C(O)CC(Sc1ccc(Cl)cc1)C(=O)Nc1ccccc1 (stereo unspecified),T/C,"dose: 31.25 mg/kg/injection, vehicle: saline with Tween-80",99 % of control
same,T/C,"dose: 62.5 mg/kg/injection, vehicle: saline with Tween-80",102 % of control
same,T/C,"dose: 125.0 mg/kg/injection, vehicle: saline with Tween-80",90 % of control
same,T/C,"dose: 500.0 mg/kg/injection, vehicle: saline with Tween-80",94 % of control
C=Cc1cc(OC)c2c(c1)c(=O)oc1c2cc(OC)c2c(O)ccc(C3OC(C(C)O)C(O)C3O)c21 (stereo unspecified),T/C,[17],109 % of control
same,T/C,[18],115 % of control
same,T/C,[19],110 % of control
